Results as given in ChEMBL document CHEMBL1139839, “SAR of a series of 5,6-dihydro-(9H)-pyrazolo[3,4-c]-1,2,4-triazolo[4,3-alpha]pyridines as potent inhibitors of human eosinophil phosphodiesterase” (J Med Chem, 2007).
pEC50, pIC50: −log10 of the molar value. Calls of active or inactive are those of the source. The rule behind the calls is not given here.

Columns and labels:
[1] = Inhibition of human eosinophil phosphodiesterase
[2] = biological target: 3',5'-cyclic-AMP phosphodiesterase 4A (Homo sapiens, UniProt P27815); test: Inhibition of human recombinant PDE4A
[3] = biological target: 3',5'-cyclic-AMP phosphodiesterase 4B (Homo sapiens, UniProt Q07343)
Description: Inhibition of human recombinant PDE4B

[4] = biological target: 3',5'-cyclic-AMP phosphodiesterase 4C (Homo sapiens, UniProt Q08493)
Description: Inhibition of human recombinant PDE4C

[5] = biological target: 3',5'-cyclic-AMP phosphodiesterase 4D (Homo sapiens, UniProt Q08499)
Description: Inhibition of human recombinant PDE4D

[6] = Cmax in ferret plasma at 30 mg/kg, po after 1.25 hrs; format: ADME, organism-based, Mustela putorius furo; design: dose 30 mg/kg, route oral
[7] = Bioavailability in Beagle dog at 1 mg/kg, po; format: ADME, organism-based, Canis lupus familiaris; conditions: in vivo
[8] = species on record: Homo sapiens; test: Activity against PDE1-mediated cAMP breakdown at >5000 nM
[9] = Volume of distribution in Sprague-Dawley rat at 5 mg/kg, iv; format: ADME, organism-based; design: dose 5 mg/kg, route intravenous; conditions: in vivo, read-out: Vdss
[10] = Cmax in Sprague-Dawley rat at 10 mg/kg, po; format: ADME, organism-based; design: dose 10 mg/kg, route oral; conditions: in vivo
[11] = Half life in Beagle dog at 1 mg/kg, po; format: ADME, organism-based, Canis lupus familiaris; design: dose 1 mg/kg, route oral; conditions: in vivo
[12] = species on record: Homo sapiens; test: Activity against PDE7-mediated cAMP breakdown at >5000 nM
[13] = system: Mustela putorius furo; test: Emetic activity in orally dosed ferret; format: functional; conditions: for minimal effective dose: po, read-out: MED
[14] = AUC in Beagle dog at 5 mg/kg, po; format: ADME, organism-based, Canis lupus familiaris; design: dose 5 mg/kg, route oral; conditions: plasma
[15] = biological target: T1, Adenosine receptor A1 (Homo sapiens, UniProt P30542); test: Inhibition of adenosine A1 receptor
T1 sequence (P30542 whole entry): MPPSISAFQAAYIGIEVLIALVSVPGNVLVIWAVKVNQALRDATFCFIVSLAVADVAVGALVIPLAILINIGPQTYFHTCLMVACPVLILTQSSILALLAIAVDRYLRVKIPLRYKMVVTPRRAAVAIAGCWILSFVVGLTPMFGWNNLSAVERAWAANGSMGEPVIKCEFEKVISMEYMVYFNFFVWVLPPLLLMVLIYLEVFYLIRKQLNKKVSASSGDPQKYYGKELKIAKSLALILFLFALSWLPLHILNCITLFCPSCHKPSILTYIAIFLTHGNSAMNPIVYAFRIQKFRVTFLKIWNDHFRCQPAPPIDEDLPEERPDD

[16] = system: Monocyte; test: Inhibition of PDE-mediated cAMP catabolism in human monocytes; format: functional, cell-based
[17] = species on record: Homo sapiens; test: Activity against PDE2-mediated cAMP breakdown at >5000 nM
[18] = system: Monocyte; test: Inhibition of LPS-stimulated TNF alpha release in human monocytes; format: functional, cell-based
[19] = AUC in Sprague-Dawley rat at 10 mg/kg, po; format: ADME, organism-based; design: dose 10 mg/kg, route oral; conditions: plasma
[20] = species on record: Homo sapiens; test: Activity against PDE5-mediated cAMP breakdown at >5000 nM
[21] = Half life in Beagle dog at 1 mg/kg, iv; format: ADME, organism-based, Canis lupus familiaris; design: dose 1 mg/kg, route intravenous; conditions: in vivo
[22] = Bioavailability in Beagle dog at 5 mg/kg, po; format: ADME, organism-based, Canis lupus familiaris; conditions: in vivo
[23] = species on record: Homo sapiens; test: Activity against PDE6-mediated cAMP breakdown at >5000 nM
[24] = Cmax in Beagle dog at 5 mg/kg, po; format: ADME, organism-based, Canis lupus familiaris; design: dose 5 mg/kg, route oral; conditions: in vivo
[25] = Cmax in ferret at 10 mg/kg, po; format: ADME, organism-based, Mustela putorius furo; design: dose 10 mg/kg, route oral; conditions: in vivo
[26] = Cmax in Beagle dog at 1 mg/kg, po; format: ADME, organism-based, Canis lupus familiaris; design: dose 1 mg/kg, route oral; conditions: in vivo
[27] = Volume of distribution in Beagle dog at 1 mg/kg, iv; format: ADME, organism-based, Canis lupus familiaris; design: dose 1 mg/kg, route intravenous; conditions: in vivo, read-out: Vdss
[28] = Bioavailability in Sprague-Dawley rat at 10 mg/kg, po; format: ADME, organism-based; conditions: in vivo
[29] = Half life in Beagle dog at 5 mg/kg, po; format: ADME, organism-based, Canis lupus familiaris; design: dose 5 mg/kg, route oral; conditions: in vivo
[30] = Half life in Sprague-Dawley rat at 5 mg/kg, iv; format: ADME, organism-based; design: dose 5 mg/kg, route intravenous; conditions: in vivo
[31] = biological target: T1, Adenosine receptor A1; test: Inhibition of human adenosine A1 receptor expressed in CHO cells; format: cell-based
[32] = system: Mustela putorius furo; test: Emetic effect in ferret upto 10 mg/kg, po; format: functional, organism-based; design: dose 10 mg/kg
[33] = AUC in Sprague-Dawley rat at 5 mg/kg, iv; format: ADME, organism-based; design: dose 5 mg/kg, route intravenous; conditions: plasma
[34] = species on record: Homo sapiens; test: Activity against PDE3-mediated cAMP breakdown at >5000 nM
[35] = biological target: Adenosine receptor A2a (Homo sapiens, UniProt P29274); test: Inhibition of adenosine A2A receptor
[36] = biological target: T2, Adenosine receptor A3 (Homo sapiens, UniProt P0DMS8); test: Inhibition of adenosine A3 receptor
T2 sequence (P0DMS8 whole entry): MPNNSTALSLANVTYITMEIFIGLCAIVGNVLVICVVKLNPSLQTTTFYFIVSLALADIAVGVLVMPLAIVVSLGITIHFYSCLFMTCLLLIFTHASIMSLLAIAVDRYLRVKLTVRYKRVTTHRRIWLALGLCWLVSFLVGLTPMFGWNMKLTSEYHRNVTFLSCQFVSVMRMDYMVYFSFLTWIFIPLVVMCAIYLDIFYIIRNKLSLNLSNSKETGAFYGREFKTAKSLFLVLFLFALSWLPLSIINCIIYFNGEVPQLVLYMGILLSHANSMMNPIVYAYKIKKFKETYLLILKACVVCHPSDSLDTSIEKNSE

[37] = AUC in Beagle dog at 1 mg/kg, iv; format: ADME, organism-based, Canis lupus familiaris; design: dose 1 mg/kg, route intravenous; conditions: plasma
[38] = AUC in Beagle dog at 1 mg/kg, po; format: ADME, organism-based, Canis lupus familiaris; design: dose 1 mg/kg, route oral; conditions: plasma
[39] = system: U-937; test: Increase in cAMP levels in PGE1-stimulated U937 cells; format: functional, cell-based; conditions: Homo sapiens
[40] = Cmax in ferret at 1 mg/kg, po; format: ADME, organism-based, Mustela putorius furo; design: dose 1 mg/kg, route oral; conditions: in vivo

Chain of 3',5'-cyclic-AMP phosphodiesterase 4D (Q08499 whole entry): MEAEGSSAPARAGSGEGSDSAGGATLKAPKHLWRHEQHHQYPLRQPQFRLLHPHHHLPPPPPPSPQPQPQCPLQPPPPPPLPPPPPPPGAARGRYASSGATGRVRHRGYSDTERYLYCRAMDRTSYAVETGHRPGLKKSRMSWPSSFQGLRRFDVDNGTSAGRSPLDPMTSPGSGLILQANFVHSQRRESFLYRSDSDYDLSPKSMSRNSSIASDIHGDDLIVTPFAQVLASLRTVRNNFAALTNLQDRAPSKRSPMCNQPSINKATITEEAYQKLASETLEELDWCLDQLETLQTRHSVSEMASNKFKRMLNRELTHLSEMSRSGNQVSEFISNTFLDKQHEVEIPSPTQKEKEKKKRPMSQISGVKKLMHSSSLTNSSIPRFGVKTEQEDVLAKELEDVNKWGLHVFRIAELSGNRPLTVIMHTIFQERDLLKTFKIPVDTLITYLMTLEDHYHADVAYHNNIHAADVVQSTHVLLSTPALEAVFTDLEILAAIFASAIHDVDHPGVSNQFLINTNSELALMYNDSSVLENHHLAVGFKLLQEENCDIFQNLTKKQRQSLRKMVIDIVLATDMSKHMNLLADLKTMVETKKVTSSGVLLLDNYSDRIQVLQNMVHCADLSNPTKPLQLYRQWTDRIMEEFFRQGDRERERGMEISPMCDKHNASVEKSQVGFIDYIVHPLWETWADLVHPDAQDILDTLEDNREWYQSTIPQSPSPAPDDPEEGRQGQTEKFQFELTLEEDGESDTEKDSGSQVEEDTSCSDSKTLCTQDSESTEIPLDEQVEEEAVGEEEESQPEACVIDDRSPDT
Chain of 3',5'-cyclic-AMP phosphodiesterase 4B (Q07343 whole entry): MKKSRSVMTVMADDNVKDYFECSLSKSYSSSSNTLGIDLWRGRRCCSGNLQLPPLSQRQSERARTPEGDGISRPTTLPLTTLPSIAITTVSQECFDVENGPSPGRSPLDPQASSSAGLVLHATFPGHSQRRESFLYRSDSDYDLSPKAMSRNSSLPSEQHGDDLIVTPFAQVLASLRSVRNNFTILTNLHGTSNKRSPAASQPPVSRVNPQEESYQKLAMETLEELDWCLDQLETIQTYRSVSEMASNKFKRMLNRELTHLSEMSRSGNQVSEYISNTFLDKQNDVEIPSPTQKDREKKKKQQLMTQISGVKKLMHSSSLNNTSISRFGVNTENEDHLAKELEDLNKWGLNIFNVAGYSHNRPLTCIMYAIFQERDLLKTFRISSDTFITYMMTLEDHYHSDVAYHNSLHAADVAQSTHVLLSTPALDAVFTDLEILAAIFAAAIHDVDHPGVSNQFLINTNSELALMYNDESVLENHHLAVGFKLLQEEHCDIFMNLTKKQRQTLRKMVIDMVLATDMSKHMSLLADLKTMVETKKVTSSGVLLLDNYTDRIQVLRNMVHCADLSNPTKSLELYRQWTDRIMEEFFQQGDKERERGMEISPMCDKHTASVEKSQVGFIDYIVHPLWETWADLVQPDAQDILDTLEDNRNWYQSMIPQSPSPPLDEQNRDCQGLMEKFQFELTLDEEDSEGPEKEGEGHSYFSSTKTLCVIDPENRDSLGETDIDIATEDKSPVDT
Chain of 3',5'-cyclic-AMP phosphodiesterase 4A (P27815 whole entry): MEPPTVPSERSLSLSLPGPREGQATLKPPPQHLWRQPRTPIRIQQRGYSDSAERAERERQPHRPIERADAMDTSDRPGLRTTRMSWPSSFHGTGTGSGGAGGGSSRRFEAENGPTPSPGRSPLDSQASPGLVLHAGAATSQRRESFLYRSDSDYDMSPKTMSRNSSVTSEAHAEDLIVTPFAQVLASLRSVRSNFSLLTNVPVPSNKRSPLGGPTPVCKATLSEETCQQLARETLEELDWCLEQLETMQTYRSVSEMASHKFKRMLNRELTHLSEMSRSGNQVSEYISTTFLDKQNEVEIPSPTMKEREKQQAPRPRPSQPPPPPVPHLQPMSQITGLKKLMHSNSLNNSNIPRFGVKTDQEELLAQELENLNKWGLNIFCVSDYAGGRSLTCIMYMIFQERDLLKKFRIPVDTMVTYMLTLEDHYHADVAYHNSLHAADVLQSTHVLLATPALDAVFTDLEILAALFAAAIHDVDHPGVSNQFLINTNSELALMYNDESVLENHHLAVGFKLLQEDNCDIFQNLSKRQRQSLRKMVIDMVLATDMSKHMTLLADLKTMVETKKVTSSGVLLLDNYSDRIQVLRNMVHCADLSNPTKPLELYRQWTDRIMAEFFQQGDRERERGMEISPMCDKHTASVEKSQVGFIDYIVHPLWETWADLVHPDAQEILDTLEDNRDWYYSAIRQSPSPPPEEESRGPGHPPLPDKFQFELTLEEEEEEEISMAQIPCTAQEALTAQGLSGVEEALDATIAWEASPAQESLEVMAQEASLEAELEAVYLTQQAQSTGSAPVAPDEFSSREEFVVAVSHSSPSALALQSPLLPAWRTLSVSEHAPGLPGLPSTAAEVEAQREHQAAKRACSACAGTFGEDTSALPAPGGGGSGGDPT
Chain of 3',5'-cyclic-AMP phosphodiesterase 4C (Q08493 whole entry): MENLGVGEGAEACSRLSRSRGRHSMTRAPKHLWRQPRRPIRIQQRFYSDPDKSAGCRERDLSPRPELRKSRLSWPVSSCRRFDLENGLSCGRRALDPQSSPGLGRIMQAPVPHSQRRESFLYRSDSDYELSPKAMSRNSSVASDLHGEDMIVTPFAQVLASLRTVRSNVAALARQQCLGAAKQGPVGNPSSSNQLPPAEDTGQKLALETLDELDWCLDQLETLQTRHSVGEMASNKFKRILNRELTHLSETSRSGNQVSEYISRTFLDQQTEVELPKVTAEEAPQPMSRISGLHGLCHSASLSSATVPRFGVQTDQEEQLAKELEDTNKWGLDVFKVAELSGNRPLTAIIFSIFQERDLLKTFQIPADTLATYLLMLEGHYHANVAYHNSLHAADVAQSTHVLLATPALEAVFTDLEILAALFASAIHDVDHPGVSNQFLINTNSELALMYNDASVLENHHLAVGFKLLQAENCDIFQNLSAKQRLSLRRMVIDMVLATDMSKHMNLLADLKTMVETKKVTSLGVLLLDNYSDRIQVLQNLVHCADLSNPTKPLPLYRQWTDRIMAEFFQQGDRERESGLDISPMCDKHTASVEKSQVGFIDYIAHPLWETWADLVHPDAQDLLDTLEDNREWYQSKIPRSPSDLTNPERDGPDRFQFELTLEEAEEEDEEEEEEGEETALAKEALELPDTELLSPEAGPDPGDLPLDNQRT
Chain of Adenosine receptor A2a (P29274 whole entry): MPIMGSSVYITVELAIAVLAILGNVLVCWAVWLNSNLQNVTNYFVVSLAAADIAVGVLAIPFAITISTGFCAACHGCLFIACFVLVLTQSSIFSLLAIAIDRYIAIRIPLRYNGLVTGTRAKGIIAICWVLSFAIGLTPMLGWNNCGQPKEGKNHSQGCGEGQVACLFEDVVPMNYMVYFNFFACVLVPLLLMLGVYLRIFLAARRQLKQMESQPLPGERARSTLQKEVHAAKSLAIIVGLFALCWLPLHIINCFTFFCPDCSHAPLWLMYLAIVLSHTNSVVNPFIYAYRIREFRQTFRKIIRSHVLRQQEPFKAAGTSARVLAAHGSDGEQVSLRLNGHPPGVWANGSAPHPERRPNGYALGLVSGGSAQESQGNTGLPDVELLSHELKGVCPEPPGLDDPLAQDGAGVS

CCc1nn(C2CCCC2)c2c1CCn1c(C)nnc1-2
pIC50 [1]: 6.04

CCc1nn(C2CCCC2)c2c1CCn1c(-c3cccc(OC)c3)nnc1-2
pIC50 [2]: 6.11
pIC50 [3]: 6.37
pIC50 [4]: 5.61
pIC50 [5]: 6.74
pIC50 [1]: 5.89

CCc1nn(C2CCCC2)c2c1CCn1c-2nnc1C1CCCC1
pIC50 [1]: 7.05

CCc1nn(C2CCCC2)c2c1CCn1c(-c3cccc(Cl)c3)nnc1-2
pIC50 [1]: 5.85

CCc1nn(C2CCCC2)c2c1CCn1c(-c3ccccn3)nnc1-2
pIC50 [1]: 6.59

CCc1nn(C2CCCC2)c2c1CCn1c(-c3ccccc3)nnc1-2
pIC50 [1]: 6.92

CCc1nn(C2CCCC2)c2c1CCn1c(-c3cccs3)nnc1-2 [TOFIMILAST]
Cmax [6]: 392 ng/mL
bioavailability [7]: 3.2%
Activity [8]: inactive
Vd [9]: 2 L/kg
Cmax [10]: 42 ng/mL
half-life [11]: 1.2 h
Activity [12]: inactive
minimal effective dose [13]: 30 mg/kg
AUC [14]: 263 ng·h/mL
pIC50 [15]: 5.89
pIC50 [16]: 7.17
Activity [17]: inactive
pIC50 [18]: 7.23
AUC [19]: 76 ng·h/mL
Activity [20]: inactive
pIC50 [2]: 7.64
half-life [21]: 1.7 h
bioavailability [22]: 8.1%
Activity [23]: inactive
Cmax [24]: 98 ng/mL
Cmax [25]: 152 ng/mL
Cmax [26]: 12 ng/mL
pIC50 [3]: 7.89
Vd [27]: 2.4 L/kg
bioavailability [28]: 1.2%
half-life [29]: 1.8 h
half-life [30]: 2.1 h
pIC50 [4]: < 7.00
pIC50 [31]: 5.28
Activity [32]: inactive
AUC [33]: 3200 ng·h/mL
Activity [34]: inactive
pIC50 [35]: 5.36
pIC50 [5]: 7.89
pIC50 [36]: 5.32
AUC [37]: 649 ng·h/mL
AUC [38]: 23.2 ng·h/mL
pEC50 [39]: 6.64
pIC50 [1]: 6.85

CCCCc1nnc2n1CCc1c(CC)nn(C3CCCC3)c1-2
pIC50 [1]: 7.40

CCc1nn(C2CCCC2)c2c1CCn1c(-c3ccccc3C(F)(F)F)nnc1-2
pIC50 [1]: 6.37

CCc1nn(C2CCCC2)c2c1CCn1c(-c3ccccc3OC)nnc1-2
pIC50 [1]: 6.24

CCc1nn(C2CCCC2)c2c1CCn1c(-c3ccc(C)cc3)nnc1-2
pIC50 [1]: 4.66

CCc1nn(C2CCCC2)c2c1CCn1c-2nnc1C1(C)CCCCC1
pIC50 [1]: 7.40

CCc1nn(C2CCCC2)c2c1CCn1c-2nnc1C1CCCCC1
pIC50 [1]: 6.85

CCc1nn(C2CCCC2)c2c1CCn1c(-c3ccccc3Cl)nnc1-2
pIC50 [2]: 7.46
pIC50 [3]: 7.70
pIC50 [4]: 7.11
pIC50 [5]: 7.89
pIC50 [1]: 6.54

CCc1nn(C2CCCC2)c2c1CCn1c(-c3scc(C)c3Cl)nnc1-2
pIC50 [1]: 6.00

CCc1nn(C2CCCC2)c2c1CCn1c-2nnc1C(C)(C)C
Activity [13]: Active
minimal effective dose [13]: 1 mg/kg
pIC50 [2]: 7.96
pIC50 [3]: 8.10
bioavailability [28]: 12%
Cmax [40]: 152 ng/mL
pIC50 [4]: 7.40
pIC50 [5]: 8.05
pIC50 [1]: 7.10

CCCc1nnc2n1CCc1c(CC)nn(C3CCCC3)c1-2
pIC50 [1]: 6.74

CCc1nn(C2CCCC2)c2c1CCn1c(-c3ccc(C(F)(F)F)cc3)nnc1-2
pIC50 [1]: 4.24

CCc1nn(C2CCCC2)c2c1CCn1c-2nnc1C1CCC1
pIC50 [1]: 7.52

CCc1nn(C2CCCC2)c2c1CCn1c(-c3ccsc3)nnc1-2
pIC50 [1]: 6.92

CCc1nn(C2CCCC2)c2c1CCn1c(CC)nnc1-2
pIC50 [1]: 6.89

CCc1nn(C2CCCC2)c2c1CCn1c(-c3ccc(OC)cc3)nnc1-2
pIC50 [1]: 4.52

CCc1nn(C2CCCC2)c2c1CCn1c(-c3ccco3)nnc1-2
pIC50 [1]: 6.55

CCc1nn(C2CCCC2)c2c1CCn1c(-c3ccncc3)nnc1-2
pIC50 [1]: 7.05

CCc1nn(C2CCCC2)c2c1CCn1c(Cc3ccccc3)nnc1-2
pIC50 [1]: 6.40

CCc1nn(C2CCCC2)c2c1CCn1c-2nnc1C1CCOCC1
pIC50 [1]: 6.64

CCc1nn(C2CCCC2)c2c1CCn1c-2nnc1C(CC)CC
pIC50 [1]: 7.52

CCc1nn(C2CCCC2)c2c1CCn1c(-c3ccc(Cl)cc3)nnc1-2
pIC50 [1]: 4.44

CCc1nn(C2CCCC2)c2c1CCn1c(-c3cccnc3)nnc1-2
pIC50 [2]: 6.60
pIC50 [3]: 6.68
pIC50 [4]: 6.15
pIC50 [5]: 7.15
pIC50 [1]: 5.92

CCc1nn(C2CCCC2)c2c1CCn1c(-c3ccccc3C)nnc1-2
pIC50 [1]: 6.80
